Data as given in patent publication US20050147662A1, “Compounds and compositions for delivering active agents” (Emisphere Technologies, Inc., priority 2003, published 2005).

melting point: 85 to 88 °C
Compound: CN(CCCCCCCC(=O)O)C(=O)c1ccccc1O [Compound 1, 8-[(2-Hydroxy-benzoyl)-methyl-amino]-octanoic acid]
